In US20220289794A1, “SYNTHETIC ANTIMICROBIAL PEPTIDES” (priority 2019, published 2022):
In brackets after ≈: the same amount, converted by molar mass. Read-outs that look alike come from different tables or passages of the source.

Legend:
[1] = tested on: Escherichia coli (E. Coli, ATCC 25922); assay: microbe, parasite or virus in culture; conditions: ATCC25922, 24 h, read-out: Escherichia coli (ATCC 25922) MIC
E. coli = conditions: Table 37; peptides and peptide-capped gold nanoparticles
KPC = conditions: Table 37; peptides and peptide-capped gold nanoparticles
[2] = tested on: Escherichia coli (E. Coli, ATCC 25922); conditions: antibiotics alone and PHY-MIX (1:1 w/w)
[3] = tested on: Klebsiella pneumoniae (ATCC BAA-1705); assay: microbe, parasite or virus in culture
[4] = tested on: Pseudomonas aeruginosa (PSA, ATCC 27883); assay: microbe, parasite or virus in culture; conditions: ATCC27883, 24 h, read-out: Pseudomonas aeruginosa (ATCC 27883) MIC
[5] = tested on: Clostridium difficile (ATCC 700057); assay: MIC determination, broth microdilution (CLSI); assay type: cell-based
[6] = tested on: Clostridium difficile (NAP1/027); assay: MIC determination, broth microdilution (CLSI); assay type: cell-based
[7] = tested on: Escherichia coli (ATCC 25922); assay: microbe, parasite or virus in culture
[8] = tested on: Pseudomonas aeruginosa (ATCC 27883); assay: microbe, parasite or virus in culture
[9] = tested on: Klebsiella pneumoniae (KPC, ATCC BAA-1705); conditions: Klebsiella pneumoniae (ATCC BAA-1705); antibiotic alone
[10] = tested on: Klebsiella pneumoniae (KPC, ATCC BAA-1705); assay: microbe, parasite or virus in culture; conditions: ATCCBAA1705, 24 h
[11] = tested on: Staphylococcus aureus ATCC 33592 (MRSA) biofilm; conditions: all other concentrations ([…] to 0.001 μg/mL)
Method: (§1) Bacteria. The bacterial strains employed in these assays were obtained from the American Type Culture Collection (ATCC). Each strain was propagated as recommended by the ATCC and each strain was stored as a frozen glycerol stock at −80° C.
(§2) Bacterial Propagation. […] Following the incubation, the culture was diluted to an optical density 625 nm (OD625) of 0.1 in cation adjusted Mueller Hinton Broth (CAMHB), which is equivalent to 1×10^8 CFU/mL. The culture was further diluted to 1×10^6 CFU/mL which was used for the assay.
(§3) Determination of the Temporal Effects of SPL7013 Addition to Inhibit Biofilm Formation. Each strain of bacteria was adjusted to a concentration of 1×10^6 CFU/mL and added to a 96-well flat-bottomed plate in a volume of 100 mL. One-hundred microliters (100 mL) of each compound at 10 concentrations was added in triplicate wells. The cultures were incubated for 24 hours at 37° C. under the appropriate growth conditions for each organism. Following the incubation, the media was removed, and the formed biofilms were fixed for 1 hour at 60° C. Two-hundred microliters (200 mL) of 0.06% crystal violet was added to the wells for 5 to 10 minutes and the wells were then gently washed three times with deionized H2O to remove the crystal violet. Following crystal violet staining 200 mL of 70% ethanol was added to the wells.

[12] = tested on: Methicillin-resistant Staphylococcus aureus MRSA (ATCC BAA-1556); assay: microbe, parasite or virus in culture; conditions: read-out: MIC MRSA (ATCC BAA-1556)
[13] = tested on: Pseudomonas aeruginosa (PSA, ATCC 27883); conditions: antibiotics alone and PHY-MIX (1:1 w/w)
MRSA = assay: microbe, parasite or virus in culture; conditions: Staphylococcus aureus, ATCCBAA1556 / MRSA, read-out: MIC MRSA (ATCC BAA-1556)
[14] = tested on: Staphylococcus aureus ATCC 33592 (MRSA) biofilm; assay: microbe, parasite or virus in culture; conditions: read-out: inhibition of biofilm formation
Method: as §1, §2, §3

PSA = conditions: Table 37; peptides and peptide-capped gold nanoparticles
[15] = tested on: Klebsiella pneumoniae (KPC, ATCC BAA-1705); assay: microbe, parasite or virus in culture; conditions: ATCCBAA1705, 24 h, read-out: MIC of antibiotic
[16] = tested on: Pseudomonas aeruginosa (PSA, ATCC 27883); assay: Synergy checkerboard assay (FIC index); assay type: cell-based; conditions: ATCC27883, 24 h; Table 25; Pseudomonas aeruginosa (ATCC 27883); antibiotic alone

In the case of `CN[C@H](CC(C)C)C(=O)N[C@H]1C(=O)N[C@@H](CC(N)=O)C(=O)N[C@H]2C(=O)N[C@H]3C(=O)N[C@H](C(=O)N[C@H](C(=O)O)c4cc(O)cc(O)c4-c4cc3ccc4O)[C@H](O)c3ccc(c(Cl)c3)Oc3cc2cc(c3O[C@@H]2O[C@H](CO)[C@@H](O)[C@H](O)[C@H]2O[C@H]2C[C@](C)(N)[C@H](O)[C@H](C)O2)Oc2ccc(cc2Cl)[C@H]1O` [Vancomycin, reference compound], the MIC [1] is reported as > 64 µg/mL, the “MIC Escherichia coli (ATCC 25922)” value (E. coli) is reported as “No effect” and the “MIC Klebsiella pneumoniae (ATCC BAA-1705)” value (KPC) is reported as “No effect”. For the same compound, the “Escherichia coli (ATCC 25922) MIC” value ([2]; Table 29, [R6W4] (IFX-318)) was >64 µg/mL, the “Escherichia coli (ATCC 25922) MIC” value ([2]; Table 30, [R5W4K] (IFX-315)) was >64 µg/mL and the “Escherichia coli (ATCC 25922) MIC” value ([2]; Table 31, [R5W4] (IFX-301)) was >64 µg/mL. For the same compound, the MIC ([3]; ATCCBAA1705, read-out: KPC (ATCC BAA-1705) MIC) was > 512 µg/mL, the MIC ([3]; ATCCBAA1705, read-out: MIC K. pneumoniae (ATCC BAA-1705)) was > 256 µg/mL and the MIC [4] was > 64 µg/mL. For the same compound, the MIC90 [5] was 0.63 µg/mL (≈ 0.435 µM), the MIC95 [5] was 0.63 µg/mL (≈ 0.435 µM) and the MIC99 [5] was 0.63 µg/mL (≈ 0.435 µM). For the same compound, the MIC90 [6] was 0.31 µg/mL (≈ 0.214 µM), the MIC95 [6] was 0.31 µg/mL (≈ 0.214 µM) and the MIC99 [6] was 0.31 µg/mL (≈ 0.214 µM). The MIC ([7]; ATCC25922, read-out: E. coli (ATCC 25922) MIC) was > 512 µg/mL, the MIC ([7]; ATCC25922, read-out: MIC E. coli (ATCC 25922)) was > 256 µg/mL and the MIC ([8]; ATCC27883, read-out: MIC P. aeruginosa ATCC 27883) was > 256 µg/mL. The MIC ([8]; ATCC27883, read-out: PSA (ATCC 27883 MIC)) was > 512 µg/mL, the MIC of antibiotic [9] was > 256 µg/mL and the MIC ([10]; read-out: Klebsiella pneumoniae (ATCC BAA-1705) MIC, Table 28, IFX-031, antibiotics alone and PHY-MIX (1:1 w/w)) was > 256 µg/mL. The MIC ([10]; read-out: Klebsiella pneumoniae (ATCC BAA-1705) MIC, Table 29, [R6W4] (IFX-318), antibiotics alone and PHY-MIX (1:1 w/w)) was > 256 µg/mL, the MIC ([10]; read-out: Klebsiella pneumoniae (ATCC BAA-1705) MIC, Table 30, [R5W4K] (IFX-315), antibiotics alone and PHY-MIX (1:1 w/w)) was > 256 µg/mL and the MIC ([10]; read-out: Klebsiella pneumoniae (ATCC BAA-1705) MIC, Table 31, [R5W4] (IFX-301), antibiotics alone and PHY-MIX (1:1 w/w)) was > 64 µg/mL. For the same compound, the “inhibition of biofilm formation” value [11] was “approximately 50%”, the MIC [12] was 0.5 µg/mL (≈ 0.345 µM) and the “Pseudomonas aeruginosa (ATCC 27883) MIC” value ([13]; Table 29, [R6W4] (IFX-318)) was >64 µg/mL. The “Pseudomonas aeruginosa (ATCC 27883) MIC” value ([13]; Table 30, [R5W4K] (IFX-315)) was >64 µg/mL, the “Pseudomonas aeruginosa (ATCC 27883) MIC” value ([13]; Table 31, [R5W4] (IFX-301)) was >64 µg/mL and the MIC (MRSA) was 0.5 µg/mL (≈ 0.345 µM). The inhibition at 5000 µg/mL [14] was ~97%, the “MIC Pseudomonas aeruginosa (ATCC 27883)” value (PSA) was “No effect” and the MIC [15] was > 256 µg/mL. The MIC [16] was > 256 µg/mL.
